Assays:
EDG7 = target: T1, EDG7 (Homo sapiens, UniProt Q9UBY5); settings: no test described; cited from earlier work
T1 sequence (Q9UBY5 1-353): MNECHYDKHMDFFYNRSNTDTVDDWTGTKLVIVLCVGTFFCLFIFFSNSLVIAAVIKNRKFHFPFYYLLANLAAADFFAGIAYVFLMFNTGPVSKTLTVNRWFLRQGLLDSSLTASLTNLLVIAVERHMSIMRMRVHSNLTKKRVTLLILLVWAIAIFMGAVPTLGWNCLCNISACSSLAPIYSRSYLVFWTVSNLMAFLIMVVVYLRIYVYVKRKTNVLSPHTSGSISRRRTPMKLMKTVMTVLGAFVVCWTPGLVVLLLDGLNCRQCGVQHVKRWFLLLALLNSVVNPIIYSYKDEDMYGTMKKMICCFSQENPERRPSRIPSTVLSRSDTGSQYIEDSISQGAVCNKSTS

EDG2 [1] = target: T2, EDG2 (Homo sapiens, UniProt Q92633); assay: IL6 gene expression in LPA-stimulated HFLS-OA treated with EDG2 antagonist; format: cell-based; set-up: OA patient-derived fibroblast-like synovial cells (HFLS-OA) were purchased from Cell application Co; host or cells: HFLS-OA (OA patient-derived fibroblast-like synovial cells); settings: Ki16425 0, 0.3, 1, 3, 10 and 33 μM for 30 minutes, then 10 μM LPA, 2 hours, n=4
Method: Furthermore, the involvement of EDG2 in the LPA-induced inflammatory cytokine raising reaction in human OA synovial cells was analyzed using an antagonist against EDG2. […] As the EDG2 antagonist, Ki16425 (Sigma) was used. OA patient-derived fibroblast-like synovial cells (HFLS-OA) were purchased from Cell application Co. The HFLS-OA was cultured using the attached Synoviocyte growth medium. The number of passages for the cells used was 4 or 5. The HFLS-OA was seeded to a 24-well plate at a ratio of 1×10^5 cells/well, and cultured using the attached Synoviocyte growth medium until they became confluent. Twelve hours before performing LPA stimulation, the medium was replaced with Ham's F-12 (Invitrogen) medium containing 0.1% fatty acid free bovine serum albumin (Sigma). Twelve hours after the medium replacement, the cells were treated with Ki16425 (0, 0.3, 1, 3, 10 and 33 μM) for 30 minutes. Thereafter, the cells were stimulated with 10 μM LPA; 2 hours later, total RNA was extracted using ISOGEN (Nippon Gene), and the amount expressed of the IL6 gene was quantified by a method in accordance with Example 10 (n=4).

EDG2 [2] = target: T2, EDG2; assay: Intracellular Ca2+ concentration (FLIPR tetra) in McA-RH7777 cells stably expressing EDG2; format: cell-based; set-up: Dainippon Pharmaceutical Co., Ltd. (cells); host or cells: McA-RH7777; settings: LPA 0.3 μM, Ki16425 10^−8 to 10^−5 M added previously
Method: A forcible expression vector comprising an ORF sequence of human EDG2 [hEDG2-pcDNA3.1(+)] was purchased from UMR cDNA Resource Center. This plasmid was introduced into McA-RH7777 (Dainippon Pharmaceutical Co., Ltd.) using Lipofectamine LTX (Invitrogen), and the cells were cultured in a medium containing Geneticin for 14 to 20 days to acquire cells that stably express EDG2.
Next, an evaluation was made using FLIPR tetra (Molecular Devices) to confirm that stimulation with LPA raised intracellular Ca concentrations via the EDG2 expressed. That is, these cells were seeded to a 384-well plate, 0.03 to 10 μM LPA (Sigma) was added to each well, and it was confirmed that rises in intracellular Ca^2+ concentration occurred. LPA dose-dependently.

[3] = tested on: transcriptional factor AP-1; assay: AP-1 cis-reporter luciferase assay in PMA-stimulated E11 cells; format: cell-based, human; settings: 0.1, 1 and 10 ng/ml PMA, 24 hours after stimulation, n=2
Excerpt: Because the EDG2 gene is an LPA receptor that is dominant in OA synovial membrane, it was decided to perform a functional analysis of OA susceptibility polymorphs using synovial cells. E11 cells are a cell line established by immortalizing fibroblast-like cells from a rheumatoid arthritis patient synovial membrane with simian SV40 large T antigen (Abe et al, J Rheumatol. 1997 March; 24(3):420-9.). In the 5′-flanking region of EDG2, where i-EDG2-09 and 12 are present, an AP-1-binding motif is present. […] The method used is described below. The E11 cells were cultured using Dulbecco's Modified Eagle's Medium (DMEM, Sigma) containing 10% fetal bovine serum (FBS), antibiotics (100 U/ml penicillin G and 100 μg/ml streptomycin) and L-glutamine ([…]). On the day before the transfection, the E11 cells were seeded to a 24-multiwell plate to obtain a cell density of 5×10^4 cells/well. The following day, using Fugene-6 (Roche diagnostics), 200 ng of the reporter construct and 4 ng of pRL-TK (Promega) as the internal standard for correction of transfection efficiency, per well were transfected. Twenty-four after the transfection, the cells were cultured on a medium containing 0.1, 1 and 10 ng/ml PMA. Twenty-four hours after the stimulation, the cells were solubilized, and luciferase activity was measured using PicaGene Dual SeaPansy System (Toyo Ink). The number of cases was n=2.

[4] = tested on: EDG2 gene transcription activity (i-EDG2-09 region); assay: i-EDG2-09 luciferase reporter assay in PMA-stimulated E11 cells; format: cell-based, human; settings: both constructs (G allele and A allele), 10 ng/ml PMA, 5 hours after stimulation
Excerpt: An AP-1-binding motif described in a report by Duncliffe et al. [Immunity. […] 28; 276(52):48871-8.] is present 11 to 16 by upstream. The existence of a transcriptional factor-binding motif where AP-1 and NFAT are located in tandem is known in a plurality of genes [Macian F, Lopez-Rodriguez C and Rao A., Oncogene. 2001 Apr. 30; 20(19):2476-89. Review.]. Meanwhile, in the surrounding sequence, including i-EDG2-12, no distinct transcriptional factor binding sequence was found. […] Oligonucleotides (sense strand and antisense strand) wherein 4 bp at the restriction endonuclease NheI adhesion end is added on the 5′ side of a region centering at i-EDG2-09, and comprising the AP-1 and NFAT-binding motifs (a region at −2809 to −2839 from the transcription initiation point of EDG2), and 4 bp at the XbaI adhesion end is added on the 3′ side, were prepared for both alleles of i-EDG2-09 (G or A). After these oligonucleotides were converted to double-stranded DNAs for each allele, reporter constructs wherein each allele was integrated in tandem 5 times in the NheI site of the pGL3-promoter vector (Promega), which is a luciferase reporter vector, while retaining the orientation were prepared for G allele and A allele. […] Five hours after the stimulation, the cells were solubilized, and luciferase activity was measured using the PicaGene Dual SeaPansy System (Toyo Ink). […]

[5] = tested on: synovial cell line E11 cells; assay: EDG2 gene expression in PMA-stimulated E11 cells (quantitative real-time PCR); format: cell-based, human; settings: PMA 10 ng/ml, from 2 hours to 12 hours after addition, n=4
Method: To analyze the expression of the four LPA receptors examined in Example 10 in joint tissue, an expression quantitation analysis by quantitative real-time PCR was performed on articular cartilages and synovial tissues of knee OA patients. The method used was in accordance with Example 10. Total RNA was extracted from each tissue (articular cartilage n=4, synovial membrane n=3) using Isogen (Nippon Gene), and reverse transcription was performed on 500 ng of total RNA using Multiscribe reverse transcriptase (Applied biosystems) and a random hexamer, whereby a cDNA was obtained. Quantitation of the LPA receptor genes was performed using QuantiTect STBR Green PCR (Qiagen) on the ABI PRISM 7700 sequence detection system (Applied biosystems) as directed in the documentation attached. The number of copies of each gene was calculated using a working curve. The amount of each gene was standardized by being divided by the number of copies of the G3PDH gene. A Toyobo product was used as the primer for the G3PDH gene. […] The amount of the EDG2 gene expressed was higher in synovial membrane at a level about 10 times as high as in articular cartilage. […]
The method used is described below. […] In these total RNAs, the amount expressed of the EDG2 gene relative to G3PDH was measured in accordance with the method described in Example 11. […]

EDG2 [6] = assay: EDG2 knockdown by siRNA in LPA-stimulated HFLS-OA; format: cell-based, human; settings: n=4
Method: To analyze the involvement of EDG2 in the LPA-induced inflammatory cytokine raising reaction in human OA synovial cells, obtained in Example 17, an investigation using an siRNA was performed. The method used is described below. An siRNA against EDG2 was designed by utilizing an siRNA design support system available from the Takara Bio Web site (http://bio.takara.co.jp). Synthesis of the siRNA was outsourced to Takara Bio. The control siRNA used was such that the sequence of an siRNA against asporin was scrambled. OA patient-derived fibroblast-like synovial cells (HFLS-OA) were purchased from Cell application Co. The HFLS-OA was cultured using the attached Synoviocyte growth medium. The number of passages for the cells used was 4 or 5. The HFLS-OA was seeded to a 24-well plate at a ratio of 1×10^5 cells/well, and cultured using the attached Synoviocyte growth medium. The following day, the siRNA against EDG2 was introduced into the HFLS-OA to obtain a final concentration of 11 nM, using the Trans-IT-TKO transfection regent (Mirus Co.), according to the attached protocol. […] Twelve hours after the medium replacement, the cells were stimulated with 10 μM LPA; 2 hours later, total RNA was extracted using ISOGEN (Nippon Gene), and the amount of the IL6 gene expressed was quantified by a method in accordance with Example 10 (n=4).

T2 sequence (Q92633 whole entry): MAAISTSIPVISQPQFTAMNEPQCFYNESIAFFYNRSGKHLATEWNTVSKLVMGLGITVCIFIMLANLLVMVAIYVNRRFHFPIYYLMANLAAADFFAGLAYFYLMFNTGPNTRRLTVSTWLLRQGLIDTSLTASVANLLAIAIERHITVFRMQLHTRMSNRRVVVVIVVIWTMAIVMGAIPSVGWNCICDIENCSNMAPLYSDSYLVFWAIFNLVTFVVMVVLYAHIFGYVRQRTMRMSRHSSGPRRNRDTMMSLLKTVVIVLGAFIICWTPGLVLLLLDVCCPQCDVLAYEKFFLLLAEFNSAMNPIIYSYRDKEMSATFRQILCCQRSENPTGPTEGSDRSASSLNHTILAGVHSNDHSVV

Cc1noc(-c2ccc(CSCCC(=O)O)cc2)c1NC(=O)OC(C)c1ccccc1Cl (centres unmarked) [Ki16425]
antagonist activity against EDG7 (EDG7): antagonist activity | suppression of the rise in the expression of the IL6 gene by LPA (EDG2 [1]): dose-dependently | suppression of elevation of intracellular Ca2+ concentration by LPA stimulation (EDG2 [2]): suppressed dose-dependently

CCCCCCCCCCCCCC(=O)O[C@@H]1[C@@H](C)[C@@]2(O)[C@@H](C=C(CO)C[C@]3(O)C(=O)C(C)=C[C@@H]23)[C@@H]2C(C)(C)[C@]12OC(C)=O [PMA, phorbol 12-myristate 13-acetate]
luciferase activity (AP-1 binding motif reporter) [3]: rose PMA dose-dependently | luciferase activity of i-EDG2-09 reporter constructs [4]: rose significantly | amount expressed of the EDG2 gene relative to G3PDH [5]: rose over time

siRNA against EDG2: siRNA used in EDG2 knockdown; sense GAAAUGAGCGCCACCUUUATT (SEQ ID NO 40), antisense UAAAGGUGGCGCUCAUUUCTT (SEQ ID NO 41) (chemistry not given here)
amount expressed of the IL6 gene, which rises in response to LPA (EDG2 [6]; siRNA 11 nM, 10 μM LPA, 2 hours): significantly suppressed | amount of EDG2 expressed (EDG2 [6]; siRNA final concentration 11 nM): significantly suppressed

Source: patent publication US20100239501A1, “GENE SENSITIVE TO BONE/JOINT DISEASE AND USE THEREOF” (RIKEN, priority 2007, published 2010)
